Columns and labels:
Type in all cases: in vivo
[1] = test system: ivy-leaved morning glory (Ipomoea hederacea); assay: Test G Pre-Emergence Protocol; conditions: Ipomoea, pre-emergence, 312 h, evaluated after 13 days; for pest or weed control at 15.625 g/ha: 15.625 g ai/ha, read-out: Morning-glory, Ivy-leaved damage rating (100=total damage to plant; 0=no damage to plant); for pest or weed control at 62.5 g/ha: 62.5 g ai/ha, 100=total damage to plant, 0=no damage to plant, read-out: plant damage rating, Morningglory, Ivy-leaved; for pest or weed control at 250 g/ha: 250 g ai/ha, read-out: Morningglory, Ivy-leaved damage rating (100=total damage to plant; 0=no damage to plant)
Method in brief: (§1)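 Spraying took place one day after sowing, at 15.625, 62.5 or 250 g/ha, using an acetone/water (50:50) spray solution containing 0.5% Tween 20. Plants were kept under glasshouse conditions (24/16 °C, 14 h light, 65% humidity, watered twice daily), and injury was rated 0–100 at day 13.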

[2] = test system: giant foxtail (Setaria faberi); assay: Test G Pre-Emergence Protocol; conditions: Setaria faberi, pre-emergence, 312 h, evaluated after 13 days; for pest or weed control at 15.625 g/ha: 15.625 g ai/ha; for pest or weed control at 15.625 g/ha / pest or weed control at 250 g/ha: read-out: Foxtail, Giant damage rating (100=total damage to plant; 0=no damage to plant); for pest or weed control at 62.5 g/ha: 62.5 g ai/ha, 100=total damage to plant, 0=no damage to plant, read-out: plant damage rating, Foxtail, Giant; for pest or weed control at 250 g/ha: 250 g ai/ha
Method in brief: as §1

[3] = test system: redroot pigweed (Amaranthus retroflexus); assay: Test G Pre-Emergence Protocol; conditions: Amaranthus retroflexus, pre-emergence, 312 h, evaluated after 13 days; for pest or weed control at 15.625 g/ha: 15.625 g ai/ha; for pest or weed control at 15.625 g/ha / pest or weed control at 250 g/ha: read-out: Pigweed, Redroot damage rating (100=total damage to plant; 0=no damage to plant); for pest or weed control at 62.5 g/ha: 62.5 g ai/ha, 100=total damage to plant, 0=no damage to plant, read-out: plant damage rating, Pigweed, Redroot; for pest or weed control at 250 g/ha: 250 g ai/ha
Method in brief: as §1

corn (Zea mays) [4] = assay: Test G Pre-Emergence Protocol; conditions: Zea mays, pre-emergence, 312 h, evaluated after 13 days; for plant injury at 15.625 g/ha: 15.625 g ai/ha; for plant injury at 15.625 g/ha / plant injury at 250 g/ha: read-out: Corn damage rating (100=total damage to plant; 0=no damage to plant); for plant injury at 62.5 g/ha: 62.5 g ai/ha, 100=total damage to plant, 0=no damage to plant, read-out: plant damage rating, Corn; for plant injury at 250 g/ha: 250 g ai/ha
Method in brief: as §1

[5] = test system: barnyardgrass (Echinochloa crus-galli); assay: Test G Pre-Emergence Protocol; conditions: Echinochloa crus-galli, pre-emergence, 312 h, evaluated after 13 days; for pest or weed control at 15.625 g/ha: 15.625 g ai/ha, read-out: Barnyard grass damage rating (100=total damage to plant; 0=no damage to plant); for pest or weed control at 62.5 g/ha: 62.5 g ai/ha, 100=total damage to plant, 0=no damage to plant, read-out: plant damage rating, Barnyardgrass; for pest or weed control at 250 g/ha: 250 g ai/ha, read-out: Barnyardgrass damage rating (100=total damage to plant; 0=no damage to plant)
Method in brief: as §1

[6] = test system: velvetleaf (Abutilon theophrasti); assay: Test G Pre-Emergence Protocol; conditions: Abutilon theophrasti, pre-emergence, 312 h, evaluated after 13 days; for pest or weed control at 15.625 g/ha: 15.625 g ai/ha; for pest or weed control at 15.625 g/ha / pest or weed control at 250 g/ha: read-out: Velvetleaf damage rating (100=total damage to plant; 0=no damage to plant); for pest or weed control at 62.5 g/ha: 62.5 g ai/ha, 100=total damage to plant, 0=no damage to plant, read-out: plant damage rating, Velvetleaf; for pest or weed control at 250 g/ha: 250 g ai/ha
Method in brief: as §1

[7] = test system: ivy-leaved morning glory (Ipomoea hederacea); assay: Test G Post-Emergence Protocol; conditions: Ipomoea, post-emergence, 312 h; for pest or weed control at 15.625 g/ha: 15.625 g ai/ha, evaluated after 13 days (100=total damage to plant; 0=no damage to plant), read-out: Morningglory, Ivy-leaved damage rating; for pest or weed control at 62.5 g/ha: 62.5 g ai/ha, read-out: Morningglory, Ivy-leaved damage rating (100=total damage to plant; 0=no damage to plant); for pest or weed control at 62.5 g/ha / pest or weed control at 250 g/ha: evaluated after 13 days; for pest or weed control at 250 g/ha: 250 g ai/ha, read-out: damage to plant, Morningglory, Ivy-leaved (100=total damage to plant; 0=no damage to plant)
Method in brief: (§2)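 Eight days post-sowing, plants received a spray of test compound (acetone/water 50:50, 0.5% Tween 20) at 15.625, 62.5 or 250 g/ha. Glasshouse regime thereafter: 24/16 °C, 14 h light, 65% humidity. Assessment after 13 days on a 0–100 damage scale.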

[8] = test system: giant foxtail (Setaria faberi); assay: Test G Post-Emergence Protocol; conditions: Setaria faberi, post-emergence, 312 h; for pest or weed control at 15.625 g/ha: 15.625 g ai/ha, evaluated after 13 days (100=total damage to plant; 0=no damage to plant), read-out: Foxtail, Giant damage rating; for pest or weed control at 62.5 g/ha: 62.5 g ai/ha, read-out: Foxtail, Giant damage rating (100=total damage to plant; 0=no damage to plant); for pest or weed control at 62.5 g/ha / pest or weed control at 250 g/ha: evaluated after 13 days; for pest or weed control at 250 g/ha: 250 g ai/ha, read-out: damage to plant, Foxtail, Giant (100=total damage to plant; 0=no damage to plant)
Method in brief: as §2

[9] = test system: redroot pigweed (Amaranthus retroflexus); assay: Test G Post-Emergence Protocol; conditions: Amaranthus retroflexus, post-emergence, 312 h; for pest or weed control at 15.625 g/ha: 15.625 g ai/ha, evaluated after 13 days (100=total damage to plant; 0=no damage to plant), read-out: Pigweed, Redroot damage rating; for pest or weed control at 62.5 g/ha: 62.5 g ai/ha, read-out: Pigweed, Redroot damage rating (100=total damage to plant; 0=no damage to plant); for pest or weed control at 62.5 g/ha / pest or weed control at 250 g/ha: evaluated after 13 days; for pest or weed control at 250 g/ha: 250 g ai/ha, read-out: damage to plant, Pigweed, Redroot (100=total damage to plant; 0=no damage to plant)
Method in brief: as §2

corn (Zea mays) [10] = assay: Test G Post-Emergence Protocol; conditions: Zea mays, post-emergence, 312 h; for plant injury at 15.625 g/ha: 15.625 g ai/ha, evaluated after 13 days (100=total damage to plant; 0=no damage to plant), read-out: Corn damage rating; for plant injury at 62.5 g/ha: 62.5 g ai/ha, read-out: Corn damage rating (100=total damage to plant; 0=no damage to plant); for plant injury at 62.5 g/ha / plant injury at 250 g/ha: evaluated after 13 days; for plant injury at 250 g/ha: 250 g ai/ha, read-out: damage to plant, Corn (100=total damage to plant; 0=no damage to plant)
Method in brief: as §2

[11] = test system: barnyardgrass (Echinochloa crus-galli); assay: Test G Post-Emergence Protocol; conditions: Echinochloa crus-galli, post-emergence, 312 h; for pest or weed control at 15.625 g/ha: 15.625 g ai/ha, evaluated after 13 days (100=total damage to plant; 0=no damage to plant), read-out: Barnyardgrass damage rating; for pest or weed control at 62.5 g/ha: 62.5 g ai/ha, read-out: Barnyardgrass damage rating (100=total damage to plant; 0=no damage to plant); for pest or weed control at 62.5 g/ha / pest or weed control at 250 g/ha: evaluated after 13 days; for pest or weed control at 250 g/ha: 250 g ai/ha, read-out: damage to plant, Barnyardgrass (100=total damage to plant; 0=no damage to plant)
Method in brief: as §2

[12] = test system: velvetleaf (Abutilon theophrasti); assay: Test G Post-Emergence Protocol; conditions: Abutilon theophrasti, post-emergence, 312 h; for pest or weed control at 15.625 g/ha: 15.625 g ai/ha, evaluated after 13 days (100=total damage to plant; 0=no damage to plant), read-out: Velvetleaf damage rating; for pest or weed control at 62.5 g/ha: 62.5 g ai/ha, read-out: Velvetleaf damage rating (100=total damage to plant; 0=no damage to plant); for pest or weed control at 62.5 g/ha / pest or weed control at 250 g/ha: evaluated after 13 days; for pest or weed control at 250 g/ha: 250 g ai/ha, read-out: damage to plant, Velvetleaf (100=total damage to plant; 0=no damage to plant)
Method in brief: as §2

| Structure (SMILES) | pest or weed control at 15.625 g/ha [1] | pest or weed control at 62.5 g/ha [1] | pest or weed control at 250 g/ha [1] | pest or weed control at 15.625 g/ha [2] | pest or weed control at 62.5 g/ha [2] | pest or weed control at 250 g/ha [2] | pest or weed control at 15.625 g/ha [3] | pest or weed control at 62.5 g/ha [3] | pest or weed control at 250 g/ha [3] | plant injury at 15.625 g/ha (corn (Zea mays) [4]) | plant injury at 62.5 g/ha (corn (Zea mays) [4]) | plant injury at 250 g/ha (corn (Zea mays) [4]) | pest or weed control at 15.625 g/ha [5] | pest or weed control at 62.5 g/ha [5] | pest or weed control at 250 g/ha [5] | pest or weed control at 15.625 g/ha [6] | pest or weed control at 62.5 g/ha [6] | pest or weed control at 250 g/ha [6] | pest or weed control at 15.625 g/ha [7] | pest or weed control at 62.5 g/ha [7] | also measured |
| --- | --- | --- | --- | --- | --- | --- | --- | --- | --- | --- | --- | --- | --- | --- | --- | --- | --- | --- | --- | --- | --- |
| CSc1nccc(NC(=O)[C@@H]2C(=O)N(C)C[C@H]2c2ccc(C(F)(F)F)cc2)n1 (racemic) [Compound 1516] | 0% | 0% | 0% | 0% | 0% | 0% | 0% | 0% | 0% | 0% | 0% | 0% | 0% | 0% | 0% | 0% | 0% | 0% | 0% | 0% | pest or weed control at 250 g/ha [7]: 0%; pest or weed control at 15.625 g/ha [8]: 0%; pest or weed control at 62.5 g/ha [8]: 0%; pest or weed control at 250 g/ha [8]: 0%; pest or weed control at 15.625 g/ha [9]: 0%; pest or weed control at 62.5 g/ha [9]: 0%; pest or weed control at 250 g/ha [9]: 0%; plant injury at 15.625 g/ha (corn (Zea mays) [10]): 0%; plant injury at 62.5 g/ha (corn (Zea mays) [10]): 0%; plant injury at 250 g/ha (corn (Zea mays) [10]): 0%; pest or weed control at 15.625 g/ha [11]: 0%; pest or weed control at 62.5 g/ha [11]: 0%; pest or weed control at 250 g/ha [11]: 0%; pest or weed control at 15.625 g/ha [12]: 0%; pest or weed control at 62.5 g/ha [12]: 0%; pest or weed control at 250 g/ha [12]: 0% |
| CN1C[C@@H](c2ccc(C(F)(F)F)cc2)[C@H](C(=O)Nc2cccnc2Cl)C1=O (racemic) [Compound 1517] | 0% | 0% | 0% | 30% | 70% | 80% | 0% | 0% | 60% | 0% | 0% | 20% | 0% | 70% | 90% | 0% | 0% | 0% | 20% | 30% | pest or weed control at 250 g/ha [7]: 70%; pest or weed control at 15.625 g/ha [8]: 20%; pest or weed control at 62.5 g/ha [8]: 60%; pest or weed control at 250 g/ha [8]: 60%; pest or weed control at 15.625 g/ha [9]: 0%; pest or weed control at 62.5 g/ha [9]: 0%; pest or weed control at 250 g/ha [9]: 20%; plant injury at 15.625 g/ha (corn (Zea mays) [10]): 0%; plant injury at 62.5 g/ha (corn (Zea mays) [10]): 10%; plant injury at 250 g/ha (corn (Zea mays) [10]): 80%; pest or weed control at 15.625 g/ha [11]: 0%; pest or weed control at 62.5 g/ha [11]: 50%; pest or weed control at 250 g/ha [11]: 70%; pest or weed control at 15.625 g/ha [12]: 0%; pest or weed control at 62.5 g/ha [12]: 10%; pest or weed control at 250 g/ha [12]: 20% |
| CN1C[C@@H](c2ccc(C(F)(F)F)cc2)[C@H](C(=O)Nc2cc(Cl)nc(Cl)c2)C1=O (racemic) [Compound 1519] | 0% | 0% | 0% | 0% | 0% | 0% | 0% | 0% | 0% | 0% | 0% | 0% | 0% | 0% | 0% | 0% | 0% | 0% | 0% | 0% | pest or weed control at 250 g/ha [7]: 0%; pest or weed control at 15.625 g/ha [8]: 0%; pest or weed control at 62.5 g/ha [8]: 0%; pest or weed control at 250 g/ha [8]: 0%; pest or weed control at 15.625 g/ha [9]: 0%; pest or weed control at 62.5 g/ha [9]: 0%; pest or weed control at 250 g/ha [9]: 0%; plant injury at 15.625 g/ha (corn (Zea mays) [10]): 10%; plant injury at 62.5 g/ha (corn (Zea mays) [10]): 10%; plant injury at 250 g/ha (corn (Zea mays) [10]): 0%; pest or weed control at 15.625 g/ha [11]: 0%; pest or weed control at 62.5 g/ha [11]: 0%; pest or weed control at 250 g/ha [11]: 0%; pest or weed control at 15.625 g/ha [12]: 0%; pest or weed control at 62.5 g/ha [12]: 0%; pest or weed control at 250 g/ha [12]: 0% |

Source: US12077503B2, “Substituted cyclic amides and their use as herbicides” (FMC CORPORATION, priority 2015, dated 2024)
